Reference: PubChem BioAssay AID1557 (Sanford-Burnham Center for Chemical Genomics, 2009)
Active and inactive are the calls of the source. No rule for the calls is given here.

Tested on: PAMPA artificial membrane permeability, UV readout, 30 min
Test: PAMPA effective permeability – biophysical, pH 7.4, 6.2, 5.0, ADME assay, late-stage follow-up (AID 1557)
Settings: at 50 µM, stronger effect = higher value

C=CCn1c(SCC(=O)c2ccc(O)c(O)c2)nnc1-c1ccccc1OC
effective permeability pH 7.4: 58 10-6 cm/s (inactive) | effective permeability pH 5.0 (measured here: permeability at pH 5.0): 90 10-6 cm/s | effective permeability pH 6.2 (measured here: permeability at pH 6.2): 98 10-6 cm/s
